Values after ≈ are worked out from the molar mass of the structure shown.
Columns and labels:
[1] = Stability of micronized vs unmicronised candesartan cilexetil at 40° C. and 75% humidity (impurities); assay type: physicochemical
Procedure: This approach is not appropriate for candesartan cilexetil, because any mechanical stress applied to the crystals of candesartan cilexetil leads to deterioration of the crystal structure and/or partial or complete (if mechanical stress is long enough) amorphisation, resulting in decreased stability. For example, when micronized candesartan cilexetil with d(0.9)=5 μm is subjected to 40° C. and 75% humidity for 1 month the impurities changed from 0.33% to 0.85%, compared to 0.19% and 0.10% for the unmicronised sample.

[2] = Solubility of candesartan cilexetil in water from solid state emulsion systems, room temperature; assay type: physicochemical; settings: thermodynamic from solid, sample weight 50 mg in 100 ml
Procedure: (§1) The solubility of candesartan cilexetil in water was studied at room temperature. Water dispersion (100 ml) of the sample in the laboratory beaker was mixed on the magnetic stirrer for 60 minutes. Afterwards, the part of the dispersion was taken from the beaker, filtered through the 0.45 μm filter and the concentration of candesartan cilexetil was determined by HPLC.

[3] = cited from earlier work
[4] = Solubility of celecoxib in water from solid state emulsion systems; assay type: physicochemical; settings: thermodynamic from solid, sample weight 100 mg, ultrasound
Procedure: as §1
The solubility of celecoxib in water was determined with the same procedure as described in Example 7.

[5] = after 40° C. and 75% humidity for 1 month

Compound	impurities [1, 5] [%]	impurities ([1]; initial, before storage) [%]	other results
CCOc1nc2cccc(C(=O)OC(C)OC(=O)OC3CCCCC3)c2n1Cc1ccc(-c2ccccc2-c2nnn[nH]2)cc1 (centres unmarked) [unmicronised sample, candesartan cilexetil]	0.10	0.19	
CCOc1nc2cccc(C(=O)OC(C)OC(=O)OC3CCCCC3)c2n1Cc1ccc(-c2ccccc2-c2nnn[nH]2)cc1 (centres unmarked) [micronized candesartan cilexetil, candesartan cilexetil]	0.85	0.33	
CCOc1nc2cccc(C(=O)OC(C)OC(=O)OC3CCCCC3)c2n1Cc1ccc(-c2ccccc2-c2nnn[nH]2)cc1 (centres unmarked) [Candesartan cilexetil]			solubility at 60 min [2]: < 0.1 µg/mL; solubility in phosphate buffer ([3]; phosphate buffer pH=7.0, at 37° C.): less than 0.2 μg/ml; water solubility ([3]; water, at 37° C.): 0.5 µg/mL (≈ 0.819 µM)
Cc1ccc(-c2cc(C(F)(F)F)nn2-c2ccc(S(N)(=O)=O)cc2)cc1 [Celecoxib, 4-[5-(4-methylphenyl)-3-(trifluoromethyl)pyrazol-1-yl]benzenesulfonamide]			solubility at 60 min [4]: 0.3 µg/mL (≈ 0.787 µM)
